Measured values as given in patent publication US20260176265A1 (Cancer Research Technology Limited, priority 2022, published 2026).

Legend:
[1] = molecular target: CtermHisTag-mEGFR Wild type (Homo sapiens, UniProt P00533); experiment: TR-FRET probe displacement assay, EGFR wild type; assay type: binding; conditions: EGFR wild type 1.25 nM, probe 100 nM, 30 mins room temperature
Protocol: (§1) Compounds (dissolved to 100 mM in DMSO) were dispensed into black low volume 384 well assay plates (Corning) over a final concentration range of 100000, 30000, 10000, 3000, 1000, 300, 100, 30, 10, and 3 nM using an Echo 550 (Labcyte). Positive control compound and DMSO as a negative control were dispensed into the first and last well, respectively. […]. Plates were read using a PheraStar FS (BMG Labtech) at Ex337 nm Ex490/520 nm. The data were analysed using Graphpad Prism/Dotmatics Studies Software. Assays conducted in technical replicate and repeated as a biological duplicate.

[2] = molecular target: CtermHisTag-mEGFR Triple Mutant - C797S, L858R, T790M (Homo sapiens, UniProt P00533, C797S/L858R/T790M); experiment: TR-FRET probe displacement assay, EGFR triple mutant; assay type: binding; conditions: T790M 1.25 nM, probe 100 nM, 30 mins room temperature
Protocol: as §1

[3] = molecular target: T1, Phospho-EGFR (Tyr1068) in H1975 C797S cells (Homo sapiens, UniProt P00533, C797S/L858R/T790M); experiment: HTRF pEGFR/total EGFR assay in H1975 C797S cells; assay type: cell-based; conditions: H1975 C797S cells (CRISPR), compound 3 hours, ratio pEGFR/total EGFR
T1 construct: endogenous in cells; host or cells: H1975 C797S (CRISPR-edited in house from ATCC CRL-5908)
Protocol: H1975 C797S cells (ATCC CRL-5908) were genetically engineered by CRISPR editing of EGFR C797S in house and validated by NGS. Cells were plated at 20,000 cells per well in 96 well plates and placed at 37° C. 5% CO2. Once adhered (after 24h) cells were treated with compounds dissolved in DMSO at a final concentration of 0.1% DMSO in media. Compounds were diluted in media then added to cells for 3 hours in duplicate. Compound and media were removed from the cells, then 50 ul of HTRF lysis buffer was added (lysis buffer was diluted from 4× stock to 1× in DI water, with 1% blocking agent also added). Cells were lysed on a plate shaker (2000 rpm) for 30 minutes at room temperature. pEGFR expression was monitored using the Cisbio Phospho-EGFR (Tyr1068) cellular kit (64EG1PEH). Total EGFR expression was monitored using the Cisbio Total EGFR cellular kit (64NG1PEH) as per manufacturer's instructions. Fluorescence emission was read at two different wavelengths (665 nm and 620 nm) on a PheraStar. Results were calculated as ratio of pEGFR/total EGFR and then percentage of 0 uM control.

[4] = molecular target: T2, Phospho-EGFR (Tyr1068) in A431 cells (Homo sapiens, UniProt P00533); experiment: HTRF pEGFR/total EGFR assay in A431 cells (EGF stimulated); assay type: cell-based; conditions: compound 2.5 hours then 100 ng/ml EGF 30 mins, ratio pEGFR/total EGFR
T2 construct: endogenous in cells; host or cells: A431
Protocol: Cells were plated at 20,000 cells per well in 96 well plates and placed at 37° C. 5% CO2. Once adhered (after 24h) cells were treated with compounds dissolved in DMSO at a final concentration of 0.1% DMSO in media. Compounds were diluted in media then added to cells for 2.5 hours in duplicate, 100 ng/ml EGF (ThermoFisher, PHG0311 was is added to all compound treated cells as well as a control for 30 mins. Compound and media were removed from the cells, then 50ul of HTRF lysis bufferwas added (lysis bufferwas diluted from 4× stock to 1× in DI water, with 1% blocking agent also added). Cells were lysed on a plate shaker (2000 rpm) for 30 minutes at room temperature. pEGFR expression was monitored using the Cisbio Phospho-EGFR (Tyr1068) cellular kit (64EG1PEH). Total EGFR expression was monitored using the Cisbio Total EGFR cellular kit (64NG1PEH) as per manufacturer's instructions. Fluorescence emission was read at two different wavelengths (665 nm and 620 nm) on a PheraStar. Results were calculated as ratio of pEGFR/total EGFR and then percentage of OuM control.

[5] = molecular target: T3, Phospho-EGFR (Tyr1068) in H1975 cells (Homo sapiens, UniProt P00533, L858R/T790M); experiment: HTRF pEGFR/total EGFR assay in H1975 cells; assay type: cell-based; conditions: compound 3 hours, ratio pEGFR/total EGFR
T3 construct: host or cells: H1975
Protocol: H1975 cells (ATCC CRL-5908) were plated at 20,000 cells per well in 96 well plates and placed at 37° C. 5% CO2. Once adhered (after 24h) cells were treated with compounds dissolved in DMSO at a final concentration of 0.1% DMSO in media. Compounds were diluted in media then added to cells for 3 hours in duplicate. Compound and media were removed from the cells, then 50ul of HTRF lysis buffer is added (lysis buffer was diluted from 4× stock to 1× in DI water, with 1% blocking agent also added). Cells were lysed on a plate shaker (2000 rpm) for 30 minutes at room temperature. pEGFR expression was monitored using the Cisbio Phospho-EGFR (Tyri068) cellular kit (64EG1 PEH). Total EGFR expression was monitored using the Cisbio Total EGFR cellular kit (64NG1 PEH) as per manufacturer's instructions. Fluorescence emission was read at two different wavelengths (665 nm and 620 nm) on a PheraStar. Results were calculated as ratio of pEGFR/total EGFR and then percentage of 0 uM control.

T2 sequence (P00533 25-1210): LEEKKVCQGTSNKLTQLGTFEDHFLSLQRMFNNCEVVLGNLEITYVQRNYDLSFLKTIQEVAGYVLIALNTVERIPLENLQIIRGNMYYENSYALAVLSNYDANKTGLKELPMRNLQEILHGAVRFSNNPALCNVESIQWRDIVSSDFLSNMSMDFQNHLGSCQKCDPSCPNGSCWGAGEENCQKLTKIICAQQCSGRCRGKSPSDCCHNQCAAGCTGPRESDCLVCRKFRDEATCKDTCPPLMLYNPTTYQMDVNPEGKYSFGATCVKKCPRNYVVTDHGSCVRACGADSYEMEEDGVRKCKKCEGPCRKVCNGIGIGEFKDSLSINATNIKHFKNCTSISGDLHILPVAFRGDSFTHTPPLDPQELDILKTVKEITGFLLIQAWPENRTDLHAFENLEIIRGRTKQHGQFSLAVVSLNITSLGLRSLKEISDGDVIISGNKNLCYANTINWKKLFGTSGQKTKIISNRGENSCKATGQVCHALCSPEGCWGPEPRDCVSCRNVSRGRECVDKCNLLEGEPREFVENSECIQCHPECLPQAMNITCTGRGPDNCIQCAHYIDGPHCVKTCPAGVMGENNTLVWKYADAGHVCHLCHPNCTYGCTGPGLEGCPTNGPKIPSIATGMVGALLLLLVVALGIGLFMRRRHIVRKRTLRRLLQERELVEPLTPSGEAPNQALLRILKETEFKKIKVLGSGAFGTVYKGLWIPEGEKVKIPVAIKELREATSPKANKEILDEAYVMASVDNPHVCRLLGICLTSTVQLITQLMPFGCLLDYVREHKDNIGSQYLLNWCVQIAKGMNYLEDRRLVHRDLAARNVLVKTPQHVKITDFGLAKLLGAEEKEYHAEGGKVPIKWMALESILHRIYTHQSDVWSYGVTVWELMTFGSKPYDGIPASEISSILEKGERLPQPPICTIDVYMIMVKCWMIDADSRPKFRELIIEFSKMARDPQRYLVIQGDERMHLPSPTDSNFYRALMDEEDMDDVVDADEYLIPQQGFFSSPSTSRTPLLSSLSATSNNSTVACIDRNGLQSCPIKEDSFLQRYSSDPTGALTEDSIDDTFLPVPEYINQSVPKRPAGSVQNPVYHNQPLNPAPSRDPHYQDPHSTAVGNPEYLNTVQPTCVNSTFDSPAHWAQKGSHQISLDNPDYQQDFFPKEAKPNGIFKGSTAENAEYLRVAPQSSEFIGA
Chain of CtermHisTag-mEGFR Wild type (P00533 25-1210): as above
T3 sequence (P00533 25-1210 T790M/L858R): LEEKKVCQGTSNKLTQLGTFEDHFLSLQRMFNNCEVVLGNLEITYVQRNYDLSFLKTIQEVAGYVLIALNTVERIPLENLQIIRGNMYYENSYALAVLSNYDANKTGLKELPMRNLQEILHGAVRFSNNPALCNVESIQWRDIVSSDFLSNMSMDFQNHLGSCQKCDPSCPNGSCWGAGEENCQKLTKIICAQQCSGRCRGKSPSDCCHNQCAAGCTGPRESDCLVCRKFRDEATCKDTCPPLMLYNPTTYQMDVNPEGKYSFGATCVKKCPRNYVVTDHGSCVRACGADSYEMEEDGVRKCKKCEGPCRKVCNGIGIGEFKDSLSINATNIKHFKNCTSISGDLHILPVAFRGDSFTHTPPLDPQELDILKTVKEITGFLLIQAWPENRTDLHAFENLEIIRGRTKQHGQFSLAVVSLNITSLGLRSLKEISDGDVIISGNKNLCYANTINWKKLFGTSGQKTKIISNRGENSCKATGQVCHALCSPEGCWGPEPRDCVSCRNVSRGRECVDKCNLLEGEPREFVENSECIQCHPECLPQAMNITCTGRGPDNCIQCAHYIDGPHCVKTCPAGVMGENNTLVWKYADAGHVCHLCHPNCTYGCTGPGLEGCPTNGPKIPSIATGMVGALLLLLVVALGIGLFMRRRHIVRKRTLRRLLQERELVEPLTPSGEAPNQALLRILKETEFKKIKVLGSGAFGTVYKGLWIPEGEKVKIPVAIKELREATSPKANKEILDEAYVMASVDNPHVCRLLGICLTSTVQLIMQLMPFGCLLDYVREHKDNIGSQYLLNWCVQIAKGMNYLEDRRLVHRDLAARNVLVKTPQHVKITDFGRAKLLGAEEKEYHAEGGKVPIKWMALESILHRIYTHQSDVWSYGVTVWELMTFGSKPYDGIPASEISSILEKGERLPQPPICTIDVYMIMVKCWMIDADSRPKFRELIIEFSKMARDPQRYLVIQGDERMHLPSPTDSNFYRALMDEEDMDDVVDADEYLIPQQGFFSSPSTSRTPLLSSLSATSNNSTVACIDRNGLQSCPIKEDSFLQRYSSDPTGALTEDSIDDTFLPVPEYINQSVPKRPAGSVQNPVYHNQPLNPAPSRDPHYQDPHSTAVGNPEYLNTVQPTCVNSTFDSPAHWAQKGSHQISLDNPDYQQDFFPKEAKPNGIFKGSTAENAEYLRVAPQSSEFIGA
T1 sequence (P00533 25-1210 T790M/C797S/L858R): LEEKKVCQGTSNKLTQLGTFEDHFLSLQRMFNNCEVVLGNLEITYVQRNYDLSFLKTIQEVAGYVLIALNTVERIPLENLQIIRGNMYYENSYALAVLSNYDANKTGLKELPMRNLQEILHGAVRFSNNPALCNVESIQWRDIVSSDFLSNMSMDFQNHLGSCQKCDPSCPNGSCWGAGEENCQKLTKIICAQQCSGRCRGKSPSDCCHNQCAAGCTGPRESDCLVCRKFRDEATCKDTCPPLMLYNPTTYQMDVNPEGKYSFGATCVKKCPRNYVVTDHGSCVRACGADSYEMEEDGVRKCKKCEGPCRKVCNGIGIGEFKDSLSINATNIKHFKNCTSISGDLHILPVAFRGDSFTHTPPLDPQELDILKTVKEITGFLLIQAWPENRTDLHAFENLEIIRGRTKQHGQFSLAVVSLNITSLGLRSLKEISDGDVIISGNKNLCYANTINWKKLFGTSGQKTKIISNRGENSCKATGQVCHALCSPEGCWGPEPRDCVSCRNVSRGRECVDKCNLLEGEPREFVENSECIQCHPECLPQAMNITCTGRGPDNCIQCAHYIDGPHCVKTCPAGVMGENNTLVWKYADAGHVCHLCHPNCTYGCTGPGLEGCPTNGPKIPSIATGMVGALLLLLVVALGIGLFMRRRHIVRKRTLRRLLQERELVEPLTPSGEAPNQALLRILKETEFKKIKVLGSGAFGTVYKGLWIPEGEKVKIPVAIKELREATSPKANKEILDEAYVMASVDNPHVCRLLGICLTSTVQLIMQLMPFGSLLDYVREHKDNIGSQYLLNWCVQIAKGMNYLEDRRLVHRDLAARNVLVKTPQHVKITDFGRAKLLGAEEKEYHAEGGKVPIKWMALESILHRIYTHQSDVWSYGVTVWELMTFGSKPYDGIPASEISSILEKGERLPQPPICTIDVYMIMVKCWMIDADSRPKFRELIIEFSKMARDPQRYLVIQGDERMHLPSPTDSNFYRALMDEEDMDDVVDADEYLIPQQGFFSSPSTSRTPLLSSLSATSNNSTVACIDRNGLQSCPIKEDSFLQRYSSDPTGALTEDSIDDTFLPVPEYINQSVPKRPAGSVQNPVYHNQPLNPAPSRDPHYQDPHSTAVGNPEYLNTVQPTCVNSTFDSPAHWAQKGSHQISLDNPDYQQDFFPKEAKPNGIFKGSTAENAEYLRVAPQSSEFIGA

| IC50 [1] [nM] | IC50 [2] [nM] | IC50 [3] [nM] | IC50 [4] [nM] | IC50 [5] [nM] | SMILES |
| --- | --- | --- | --- | --- | --- |
| > 10000 | 100 to 1000 |  |  |  | C#Cc1ccnc2nc(Nc3ccccc3OC)ncc12 [Example 1, 5-ethynyl-N-(2-methoxyphenyl)pyrido[2,3-d]pyrimidin-2-amine] |
| > 10000 | 100 to 1000 | > 3000 | > 3000 | 1000 to 3000 | C#Cc1cc(OC)nc2nc(Nc3ccc(N(C)CCN(C)C)cc3)ncc12 [Example 2, N^1-(2-(dimethylamino)ethyl)-N^4-(5-ethynyl-7-methoxypyrido[2,3-d]pyrimidin-2-yl)-N^1-methylbenzene-1,4-diamine] |
| > 10000 | 100 to 1000 | 1000 to 3000 | > 3000 | 500 to 1000 | C#Cc1cc(OC)nc2nc(Nc3ccc(N4CCN(C)CC4)cc3)ncc12 [Example 3, 5-ethynyl-7-methoxy-N-(4-(4-methylDiDerazin-1-yl)phenyl)vrido[2,3-d]pyrimidin-2-amine] |
| > 10000 | 100 to 1000 | > 3000 | > 3000 | > 3000 | C#Cc1cc(OC)nc2nc(Nc3cccc(CN(C)C4CCC4)c3)ncc12 [Example 4, N-(3-{[cyclobutyl(methyl)amino]methyl}phenyl)-5-ethynyl-7-methoxypyrido[2,3-d]pyrimidin-2-amine] |
| > 10000 | 100 to 1000 | > 3000 | > 3000 | > 3000 | C#Cc1cc(OC)nc2nc(Nc3ccc(N4CCN(C)CC4)c(N(C)C)c3)ncc12 [Example 5, N^3-{5-ethynyl-7-methoxypyrido[2,3-d]pyrimidin-2-yl}-N^1,N^1-dimethyl-6-(4-methylpiperazin-1-yl)benzene-1,3-diamine] |
| 1000 to 10000 | 20 to 100 | > 3000 | > 3000 | 1000 to 3000 | C#Cc1cc(OC)nc2nc(Nc3ccc(N4CCN(C)CC4)c(Nc4ccccc4)c3)ncc12 [Example 6, N^1-{5-ethynyl-7-methoxypyrido[2,3-d]pyrimidin-2-yl}-4-(4-methylpiperazin-1-yl)-N^3-phenylbenzene-1,3-diamine] |
| > 10000 | 100 to 1000 | > 3000 | > 3000 | > 3000 | C#Cc1cc(OC)nc2nc(Nc3cccc(CN(C)C(C)=O)c3)ncc12 [Example 7, N-{[3-({5-ethynyl-7-methoxypyrido[2,3-d]pyrimidin-2-yl}amino)pheny]methyl}-N-methylacetamide] |
| 1000 to 10000 | 20 to 100 | > 3000 | > 3000 | 1000 to 3000 | C#Cc1cc(OC)nc2nc(Nc3ccc(N4CCN(C)CC4)c(NC4CCC4)c3)ncc12 [Example 8, N^3-cyclobutyl-N^1-{5-ethynyl-7-methoxypyrido[2,3-d]pyrimidin-2-yl}-4-(4-methylpiperazin-1-yl)benzene-1,3-diamine] |
| > 10000 | 100 to 1000 | > 3000 | > 3000 | > 3000 | C#Cc1cc(OC)nc2nc(Nc3cccc(CN(C)C)c3)ncc12 [Example 9, N-{3-[(dimethylamino)methyl]phenyl}-5-ethynyl-7-methoxypyrido[2,3-d] pyrimidin-2-amine] |
| < 1000 | 20 to 100 | < 500 |  | < 500 | C#Cc1cc(NC(=O)NC2CCCC2)nc2nc(Nc3cccc(N(C)[C@H]4C[C@@H](CS(C)(=O)=O)C4)c3)ncc12 [Example 119] |
| < 1000 | 20 to 100 | < 500 |  | < 500 | C#Cc1cc(NC(=O)NC2CCCC2)nc2nc(Nc3cccc(N(C)[C@H]4CC[C@@H](CS(C)(=O)=O)CC4)c3)ncc12 [Example 120] |
| < 1000 | 20 to 100 | < 500 |  | 500 to 1000 | C#Cc1cc(NC(=O)NC2CCCC2)nc2nc(Nc3cccc(N(C)[C@H]4CC[C@H](CS(C)(=O)=O)CC4)c3)ncc12 [Example 121] |
